Target: T1, galectin-3 (Homo sapiens, UniProt P17931)
T1 construct: purchased IBL IBATGPO414
Assay: Galectin-3 Activity ELISA assay: inhibition of binding of galectin-3 to immobilized Galβ1-3GlcNAc polymer
Conditions: competitive ELISA; Galβ1-3GlcNAc polymer on streptavidin plate; A450 readout; read-out: Galectin-3 Antagonist Activity IC50
Source text: An inhibition assay may be used to screen for antagonists of galectin-3. For example, an assay may be performed to characterize the capability of a compound described herein to inhibit interaction of galectin-3 with a Galβ1-3GlcNAc carbohydrate structure. The inhibition assay may be a competitive binding assay, which allows the determination of IC50 values. By way of example, a Galβ1-3GlcNAc polymer may be immobilized onto a matrix; a composition may be added to reduce nonspecific binding; the immobilized Galβ1-3GlcNAc polymer may be contacted with the candidate compound in the presence of galectin-3 group under conditions and for a time sufficient to permit galectin-3 to bind to the immobilized Galβ1-3GlcNAc polymer; the immobilized Galβ1-3GlcNAc polymer may be washed; and the amount of galectin-3 bound to the immobilized Galβ1-3GlcNAc polymer may be detected. Variations of such steps can be readily and routinely accomplished by a person of ordinary skill in the art.
Galectin-3 antagonists were evaluated for their ability to inhibit binding of galectin-3 to a Galβ1-3GlcNAc carbohydrate structure. The detailed protocol was as follows. A 1 μg/mL suspension of a Galβ1-3GlcNAcβ-3Galβ1-4GlcNAcβ-PAA-biotin polymer (Glycotech, catalog number 01-096) was prepared. A 100 μL aliquot of the polymer was added to the wells of a 96-well streptavidin-coated plate (R&D Systems, catalog number CP004). A 100 μL aliquot of 1× Tris Buffered Saline (TBS, Sigma, catalog number T5912-10×) was added to control wells. The polymer was allowed to bind to the streptavidin-coated wells for 1.5 hours at room temperature. The contents of the wells were discarded and 200 μL of 1×TBS containing 1% bovine serum albumin (BSA) was added to each well as a blocking reagent, and the plate was kept at room temperature for 30 minutes. The wells were washed three times with 1×TBS containing 0.1% BSA. A serial dilution of test compounds was prepared in a separate V-bottom plate (Corning, catalog number 3897). A 75 μL aliquot of the highest concentration of the compound to be tested was added to the first well in a column of the V-bottom plate, then 15 μl were serially transferred into 60 μL 1×TBS through the remaining wells in the column to generate a 1 to 5 serial dilution. A 60 μL aliquot of 2 ug/mL galectin-3 (IBL, catalog number IBATGPO414) was added to each well in the V-bottom plate. A 100 μL aliquot of the galectin-3/test compound mixture was transferred from the V-bottom plate into the assay plate containing the Galβ1-3GlcNAc polymer. Four sets of control wells in the assay plate were prepared in duplicate containing 1) both Galβ1-3GlcNAc polymer and galectin-3, 2) neither the polymer nor galectin-3, 3) galectin-3 only, no polymer, or 4) polymer only, no galectin-3. The plate was gently rocked for 1.5 hours at room temperature. The wells were washed four times with TBS/0.1% BSA. A 100 μL aliquot of anti-galectin-3 antibody conjugated to horse radish peroxidase (R&D Systems, from DGAL30 kit) was added to each well and the plate was kept at room temperature for 1 hour. The wells were washed four times with TBS/0.1% BSA. A 100 μL aliquot of TMB substrate solution was added to each well. The TMB substrate solution was prepared by making a 1:1 mixture of TMB Peroxidase Substrate (KPL, catalog number 5120-0048) and Peroxidase Substrate Solution B (KPL, catalog number 5120-0037). The plate was kept at room temperature for 10 to 20 minutes. The color development was stopped by adding 100 μL 10% phosphoric acid (RICCA Chemical Co., catalog number 5850-16). The absorbance at 450 nm (A450) was measured using a FlexStation 3 plate reader (Molecular Devices). Plots of A450 versus test compound concentration and IC50 determinations were made using GraphPad Prism 6.

T1 sequence (P17931 whole entry): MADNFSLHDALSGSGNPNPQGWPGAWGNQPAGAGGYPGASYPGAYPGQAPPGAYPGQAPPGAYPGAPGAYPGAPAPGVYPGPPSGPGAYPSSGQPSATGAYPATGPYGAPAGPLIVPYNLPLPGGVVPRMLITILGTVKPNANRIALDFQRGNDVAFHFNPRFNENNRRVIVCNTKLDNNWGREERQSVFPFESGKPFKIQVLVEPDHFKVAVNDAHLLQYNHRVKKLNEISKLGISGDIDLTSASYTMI

Row | SMILES | IC50 [µM]
1 | CCC(=NOC)[C@@H](OCc1ccc(Cl)cc1)[C@@H]1OC(CO)[C@H](O)C(n2cc(-c3cc(F)c(F)c(F)c3)nn2)C1O (stereo partly shown) [Compound 34] | 0.5
2 | [2H]C([2H])([2H])OC1C(n2cc(-c3cc(F)cc(F)c3)nn2)[C@@H](O)C(CO)O[C@H]1[C@H](OCc1ccc(Cl)cc1)/C(=N/OC)C([2H])([2H])C([2H])([2H])[2H] (stereo partly shown) [Compound 35] | 6.9
3 | [2H]C([2H])([2H])OC1C(n2cc(-c3cc(F)c(F)c(F)c3)nn2)[C@@H](O)C(CO)O[C@H]1[C@H](OCc1ccc(Cl)cc1)C(C)=NOCC (stereo partly shown) [Compound 36] | 10.3
4 | [2H]C([2H])([2H])OC1C(n2cc(-c3cc(F)c(F)c(F)c3)nn2)[C@@H](O)C(CO)O[C@H]1[C@H](OCc1ccc(Cl)cc1)C(C)=NOCC1CC1 (stereo partly shown) [Compound 37] | 10.6
5 | [2H]C([2H])([2H])OC1C(n2cc(-c3cc(F)c(F)c(F)c3)nn2)[C@@H](O)C(CO)O[C@H]1[C@H](OCc1ccc(Cl)cc1)C(C)=NOCC(C)C (stereo partly shown) [Compound 38] | 16.7
6 | CCON=C(CC)C(OCc1ccc(Cl)cc1)C1OC(CO)C(O)C(n2cc(-c3cc(F)c(F)c(F)c3)nn2)C1O (stereo not shown) [Compound 40] | 0.9
7 | CCC(=NOCC1CC1)[C@@H](OCc1ccc(Cl)cc1)[C@@H]1OC(CO)[C@H](O)C(n2cc(-c3cc(F)c(F)c(F)c3)nn2)C1O (stereo partly shown) [Compound 41] | 2.8

Reference: patent publication US20240287121A1, “GALECTIN-3 INHIBITING C-GLYCOSIDE OXIMES” (GLYCOMIMETICS, INC., priority 2021, published 2024)
